Data: PubChem BioAssay (NCI)
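Test compounds were applied to cells in 96-well plates for 48 hours at 5 doses. The concentration for 50% growth inhibition is given as GI50. The concentration for full growth arrest is given as TGI.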

Columns and labels:
Assay in all cases: DTP human tumour cell line panel, 48 h
[1] = tested on: SNB-75 CNS
[2] = tested on: OVCAR-3 ovarian
[3] = tested on: SN12C renal
[4] = tested on: SF-539 CNS
[5] = tested on: KM20L2 colon
[6] = tested on: SNB-78 CNS
[7] = tested on: LXFL 529 NSCLC
[8] = tested on: KM12 colon
[9] = tested on: OVCAR-8 ovarian
[10] = tested on: NCI-H460 lung
[11] = tested on: CCRF-CEM leukemia
[12] = tested on: SNB-19 CNS
[13] = tested on: A549 NSCLC
[14] = tested on: HOP-18 NSCLC
[15] = tested on: SF-295 CNS
[16] = tested on: 786-0 renal
[17] = tested on: DLD-1 colon
[18] = tested on: SK-OV-3 ovarian
[19] = tested on: RPMI-8226 leukemia
[20] = tested on: EKVX NSCLC
[21] = tested on: HOP-62 NSCLC
[22] = tested on: UACC-62 melanoma
[23] = tested on: M14 melanoma
[24] = tested on: SK-MEL-5 melanoma
[25] = tested on: DMS 114 small cell lung
[26] = tested on: HL-60(TB) leukemia
[27] = tested on: RXF 393 renal
[28] = tested on: LOX IMVI melanoma
[29] = tested on: HCT-116 colon
[30] = tested on: IGROV1 ovarian
[31] = tested on: K-562 leukemia
[32] = tested on: DMS 273 small cell lung
[33] = tested on: NCI-H23 lung
[34] = tested on: HT29 colon
[35] = tested on: MOLT-4 leukemia
[36] = tested on: OVCAR-4 ovarian
[37] = tested on: SF-268 CNS
[38] = tested on: TK-10 renal
[39] = tested on: NCI-H226 lung
[40] = tested on: SK-MEL-28 melanoma
[41] = tested on: NCI-H522 lung
[42] = tested on: U251 CNS
[43] = tested on: HCC-2998 colon
[44] = tested on: SW-620 colon
[45] = tested on: COLO 205 colon

CC(=O)[O-].Cn1ccnc1CNCc1nccn1C.[Cu+2].[O-][Cl+3]([O-])([O-])[O-]
GI50 [1]: > 100 µM
TGI [1]: > 100 µM
GI50 [2]: > 100 µM
TGI [2]: > 100 µM
GI50 [3]: > 100 µM
TGI [3]: > 100 µM
GI50 [4]: > 100 µM
TGI [4]: > 100 µM
GI50 [5]: > 100 µM
TGI [5]: > 100 µM
GI50 [6]: > 100 µM
TGI [6]: > 100 µM
GI50 [7]: > 100 µM
TGI [7]: > 100 µM
GI50 [8]: > 100 µM
TGI [8]: > 100 µM
GI50 [9]: > 100 µM
TGI [9]: > 100 µM
GI50 [10]: 51.2 µM
TGI [10]: > 100 µM
GI50 [11]: > 100 µM
TGI [11]: > 100 µM
GI50 [12]: > 100 µM
TGI [12]: > 100 µM
GI50 [13]: > 100 µM
TGI [13]: > 100 µM
GI50 [14]: > 100 µM
TGI [14]: > 100 µM
GI50 [15]: 96.9 µM
TGI [15]: > 100 µM
GI50 [16]: > 100 µM
TGI [16]: > 100 µM
GI50 [17]: > 100 µM
TGI [17]: > 100 µM
GI50 [18]: > 100 µM
TGI [18]: > 100 µM
GI50 [19]: > 100 µM
TGI [19]: > 100 µM
GI50 [20]: > 100 µM
TGI [20]: > 100 µM
GI50 [21]: > 100 µM
TGI [21]: > 100 µM
GI50 [22]: 26.9 µM
TGI [22]: > 100 µM
GI50 [23]: > 100 µM
TGI [23]: > 100 µM
GI50 [24]: > 100 µM
TGI [24]: > 100 µM
GI50 [25]: > 100 µM
TGI [25]: > 100 µM
GI50 [26]: > 100 µM
TGI [26]: > 100 µM
GI50 [27]: > 100 µM
TGI [27]: > 100 µM
GI50 [28]: > 100 µM
TGI [28]: > 100 µM
GI50 [29]: > 100 µM
TGI [29]: > 100 µM
GI50 [30]: > 100 µM
TGI [30]: > 100 µM
GI50 [31]: > 100 µM
TGI [31]: > 100 µM
GI50 [32]: > 100 µM
TGI [32]: > 100 µM
GI50 [33]: > 100 µM
TGI [33]: > 100 µM
GI50 [34]: > 100 µM
TGI [34]: > 100 µM
GI50 [35]: > 100 µM
TGI [35]: > 100 µM
GI50 [36]: 3.1 µM
TGI [36]: > 100 µM
GI50 [37]: > 100 µM
TGI [37]: > 100 µM
GI50 [38]: > 100 µM
TGI [38]: > 100 µM
GI50 [39]: > 100 µM
TGI [39]: > 100 µM
GI50 [40]: > 100 µM
TGI [40]: > 100 µM
GI50 [41]: > 100 µM
TGI [41]: > 100 µM
GI50 [42]: 33.7 µM
TGI [42]: > 100 µM
GI50 [43]: > 100 µM
TGI [43]: > 100 µM
GI50 [44]: > 100 µM
TGI [44]: > 100 µM
GI50 [45]: > 100 µM
TGI [45]: > 100 µM
